Measured values as given in patent publication US10065990B2, “Cyclic peptide compound, and preparation method, pharmaceutical composition and use thereof” (HANGZHOU GUANYU BIO-MEDICAL CO., LTD, priority 2013, dated 2018).
Like-named read-outs stand apart in the source and are kept apart here.

Legend:
HDAC7 = target: T1, HDAC7 (Homo sapiens, UniProt Q8WUI4); experiment: HDAC biochemical activity measurement (fluorescent substrate deacetylation);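 further: fluorogenic deacetylation assay using acetyl-lysine substrate at 20 µM, enzyme and compound incubated 30 min at 37 °C, then developer added, fluorescence read at 360/460 nm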; details: HDAC7; 37° C. 30 minutes
T1 sequence (Q8WUI4 1-952): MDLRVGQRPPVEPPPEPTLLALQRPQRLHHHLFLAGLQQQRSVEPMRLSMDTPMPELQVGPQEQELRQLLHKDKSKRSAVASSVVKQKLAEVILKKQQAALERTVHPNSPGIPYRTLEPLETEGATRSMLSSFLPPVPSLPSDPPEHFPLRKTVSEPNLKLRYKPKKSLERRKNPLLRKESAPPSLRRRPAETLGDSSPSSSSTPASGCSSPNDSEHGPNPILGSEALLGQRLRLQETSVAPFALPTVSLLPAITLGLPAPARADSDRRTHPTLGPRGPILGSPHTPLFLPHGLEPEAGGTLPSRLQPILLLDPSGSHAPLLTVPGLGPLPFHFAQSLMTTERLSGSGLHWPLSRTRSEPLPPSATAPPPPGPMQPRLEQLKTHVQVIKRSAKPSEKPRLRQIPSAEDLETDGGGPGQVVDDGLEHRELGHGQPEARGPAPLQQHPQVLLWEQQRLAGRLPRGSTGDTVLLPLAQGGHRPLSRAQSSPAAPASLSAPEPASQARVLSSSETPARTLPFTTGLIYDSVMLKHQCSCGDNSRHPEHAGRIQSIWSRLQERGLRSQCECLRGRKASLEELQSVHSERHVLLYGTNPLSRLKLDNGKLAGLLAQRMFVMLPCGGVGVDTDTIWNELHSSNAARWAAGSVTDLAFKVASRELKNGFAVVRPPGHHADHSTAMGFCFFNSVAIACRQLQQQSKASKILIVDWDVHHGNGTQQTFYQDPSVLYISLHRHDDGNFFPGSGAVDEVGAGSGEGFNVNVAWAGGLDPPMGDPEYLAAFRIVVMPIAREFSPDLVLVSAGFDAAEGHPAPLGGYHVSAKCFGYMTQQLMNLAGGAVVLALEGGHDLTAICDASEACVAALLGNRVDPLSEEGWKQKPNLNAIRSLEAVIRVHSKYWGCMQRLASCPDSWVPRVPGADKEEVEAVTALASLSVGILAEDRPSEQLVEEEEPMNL

[1] = tested on: MCF-7 (human breast cancer cells); experiment: MTT cancer cell growth inhibition; format: cell-based; details: Homo sapiens, MCF7, 72 h, MCF-7 cells, 72 hours incubation, read-out: GI50 MCF
Excerpt: (§1) MTT assay principle is yellow MTT can penetrate membrane into the cell, succinic dehydrogenase of the mitochondria in living cells can make exogenous MTT reduction of insoluble in water of blue-violet acicular formazan for crystallization and deposition in the cell, crystallization can be dissolved dimethyl sulfoxide (DMSO) solution, detected its absorbance at 490 nm/570 nm wavelength by enzyme-linked immunosorbent assay, which can reflect the number of cells.
(§2) Using DMEM+10% FBS culture medium or using 1640+10% FBS culture, respectively.
(§3) a) Cells were seeded in 96-well plates with the inoculation of 1500/well, 190 μl/hole, 37° C., 5% of CO2 incubator overnight;
(§4) b) The next day each well was added 10 μl of different drugs. The final concentration of drug was 10^−5˜10^−10M, three parallel holes; 37° C., 5% CO2 culture incubator for 72 hours incubation;
(§5) c) Per well was added 20 μl 5 mg/ml of MTT, 37° C., 5% CO2 culture incubator for 4 hours incubation;
(§6) d) The supernatant was discarded. Each well was added 100 μl of DMSO and oscillation;
(§7) e) 570 nm readings. Calculate cell viability. GI50 calculation based on the results.

[2] = tested on: K562 (human leukemia cells); experiment: MTT cancer cell growth inhibition; format: cell-based; details: Homo sapiens, K562, 72 h, read-out: GI50 K562
Excerpt: as §1, §2, §3, §4, §5, §6, §7

[3] = tested on: MDA-MB-231 (breast cancer cells); experiment: MTT cancer cell growth inhibition; format: cell-based; details: Homo sapiens, MDA-MB-231, 72 h
Excerpt: as §1, §2, §3, §4, §5, §6, §7

[4] = tested on: KBM-5 (human chronic myelogenous leukemia); experiment: MTT cancer cell growth inhibition; format: cell-based; details: Homo sapiens, KBM5, 72 h, read-out: GI50 KBM-5
Excerpt: as §1, §2, §3, §4, §5, §6, §7

[5] = tested on: SGC-7901 (human gastric cancer cells); experiment: MTT cancer cell growth inhibition; format: cell-based; details: Homo sapiens, SGC-7901, 72 h, read-out: GI50 SGC-7901
Excerpt: as §1, §2, §3, §4, §5, §6, §7

[6] = tested on: PANC-1 (Pac-1, human pancreatic cancer cells); experiment: MTT cancer cell growth inhibition; format: cell-based; details: Homo sapiens, PANC-1, 72 h, read-out: GI50 PAN
Excerpt: as §1, §2, §3, §4, §5, §6, §7

[7] = tested on: H1975 (non-small cell lung adenocarcinoma); experiment: MTT cancer cell growth inhibition; format: cell-based; details: Homo sapiens, NCI-H1975, 72 h, read-out: GI50 H1975
Excerpt: as §1, §2, §3, §4, §5, §6, §7

[8] = tested on: BGC-823 (human gastric cancer cells); experiment: MTT cancer cell growth inhibition; format: cell-based; details: Homo sapiens, BGC-823, 72 h, read-out: GI50 BG
Excerpt: as §1, §2, §3, §4, §5, §6, §7

[9] = tested on: HCC827 (human non-small cell lung cancer cells); experiment: MTT cancer cell growth inhibition; format: cell-based; details: Homo sapiens, HCC827, 72 h, read-out: GI50 HCC827
Excerpt: as §1, §2, §3, §4, §5, §6, §7

[10] = tested on: lncap (prostate cancer cells); experiment: MTT cancer cell growth inhibition; format: cell-based; details: Homo sapiens, LNCaP, 72 h, read-out: GI50 lnca
Excerpt: as §1, §2, §3, §4, §5, §6, §7

[11] = tested on: DU145 (human prostate cancer cells); experiment: MTT cancer cell growth inhibition; format: cell-based; details: Homo sapiens, DU-145, 72 h, read-out: GI50 Du1
Excerpt: as §1, §2, §3, §4, §5, §6, §7

[12] = tested on: HT1080 (human fibrosarcoma cells); experiment: MTT cancer cell growth inhibition; format: cell-based; details: Homo sapiens, HT-1080, 72 h, read-out: GI50 HT1
Excerpt: as §1, §2, §3, §4, §5, §6, §7

[13] = tested on: U937 (human leukemia cells); experiment: MTT cancer cell growth inhibition; format: cell-based; details: Homo sapiens, U-937, 72 h, read-out: GI50 U93
Excerpt: as §1, §2, §3, §4, §5, §6, §7

[14] = tested on: MOLT-4 (human acute lymphoblastic leukemia cells); experiment: MTT cancer cell growth inhibition; format: cell-based; details: Homo sapiens, MOLT-4, 72 h, read-out: GI50 Mol
Excerpt: as §1, §2, §3, §4, §5, §6, §7

[15] = tested on: N-87 (human gastric cancer cells); experiment: MTT cancer cell growth inhibition; format: cell-based; details: Homo sapiens, 72 h, read-out: GI50 N-87
Excerpt: as §1, §2, §3, §4, §5, §6, §7

[16] = tested on: Huh-7 (human hepatoma cells); experiment: MTT cancer cell growth inhibition; format: cell-based; details: Homo sapiens, Huh-7, 72 h, read-out: GI50 Huh-7
Excerpt: as §1, §2, §3, §4, §5, §6, §7

[17] = tested on: A549 (human lung cancer cells); experiment: MTT cancer cell growth inhibition; format: cell-based; details: Homo sapiens, A549, 72 h, read-out: GI50 A54
Excerpt: as §1, §2, §3, §4, §5, §6, §7

[18] = tested on: KBM5-T315I (human chronic myelogenous leukemia); experiment: MTT cancer cell growth inhibition; format: cell-based; details: Homo sapiens, 72 h, read-out: GI50 KBM5-T315I
Excerpt: as §1, §2, §3, §4, §5, §6, §7

[19] = tested on: Bel-7402 (human hepatoma cells); experiment: MTT cancer cell growth inhibition; format: cell-based; details: Homo sapiens, Bel-7402, 72 h, read-out: GI50 Bel-7402
Excerpt: as §1, §2, §3, §4, §5, §6, §7

[20] = tested on: Hela (human cervical cancer cells); experiment: MTT cancer cell growth inhibition; format: cell-based; details: Homo sapiens, HeLa, 72 h, read-out: GI50 Hela
Excerpt: as §1, §2, §3, §4, §5, §6, §7

Structure (SMILES): C=C1NC(=O)c2ccc(SC)c(n2)CNC(=O)C[C@@H](/C=C/CCSC(C)=O)OC(=O)[C@H](C(C)C)NC1=O [Compound 206]
- IC50 HDAC7 (HDAC7): no activity
- GI50 [1]: 30 nM
- GI50 ([2]; MTT, 72 hours incubation, K562 cells): 61 nM
- GI50 ([3]; read-out: GI50 MDA-MB-231, MTT, 72 hours incubation, MDA-MB-231 cells): 76 nM
- GI50 ([4]; MTT, 72 hours incubation, KBM-5 cells): 27 nM
- GI50 ([5]; MTT, 72 hours incubation, SGC-7901 cells): 82 nM
- GI50 ([6]; PANC-1 cells, MTT, 72 hours incubation): 20 nM
- GI50 ([7]; MTT, 72 hours incubation, H1975 cells): 75 nM
- GI50 ([8]; BGC-823 cells, MTT, 72 hours incubation): 20 nM
- GI50 ([9]; MTT, 72 hours incubation, HCC827 cells): 12 nM
- GI50 ([10]; lncap cells, MTT, 72 hours incubation): 70 nM
- GI50 ([11]; DU145 cells, MTT, 72 hours incubation): 10 nM
- GI50 ([12]; HT1080 cells, MTT, 72 hours incubation): 10 nM
- GI50 ([13]; U937 cells, MTT, 72 hours incubation): 60 nM
- GI50 ([14]; MOLT-4 cells, MTT, 72 hours incubation): 20 nM
- GI50 ([15]; MTT, 72 hours incubation, N-87 cells): 97 nM
- GI50 ([16]; MTT, 72 hours incubation, Huh-7 cells): 39 nM
- GI50 ([17]; A549 cells, MTT, 72 hours incubation): 50 nM
- GI50 ([18]; MTT, 72 hours incubation, KBM5-T315I cells): 39 nM
- GI50 ([19]; MTT, 72 hours incubation, Bel-7402 cells): 48 nM

Structure (SMILES): O=C(CCCCCCC(=O)Nc1ccccc1)NO [SAHA, suberoylanilide hydroxamic acid, reference compound]
- IC50 HDAC7 (HDAC7): no activity
- GI50 [2]: 10100 nM
- GI50 ([3]; read-out: GI50 MDA-MB-231): 22500 nM
- GI50 [4]: 11200 nM
- GI50 [5]: 12500 nM
- GI50 [6]: 7620 nM
- GI50 [7]: 15200 nM
- GI50 [8]: 5230 nM
- GI50 [9]: 16700 nM
- GI50 [10]: 4610 nM
- GI50 [11]: 15200 nM
- GI50 [12]: 3970 nM
- GI50 [13]: 2350 nM
- GI50 [14]: 10000 nM
- GI50 [15]: 13200 nM
- GI50 [20]: 30200 nM
- GI50 [16]: 18300 nM
- GI50 [17]: 8530 nM
- GI50 [18]: 86700 nM
- GI50 [19]: 12700 nM
